Source: patent US8198033B2, “Methods and materials for observing apoptosis” (Genentech, Inc., priority 2006, dated 2012)
Where a SMILES comes first, the peptide text is derived from it. The star is where a group is joined. Cbz = O=C(OCc1ccccc1)*; CH2F = FC*

Assays:
Type in all cases: cell-based, human
[1] = tested on: BJAB or Colo205 cells; experiment: Immunoblot for cleavage of clathrin-pathway components after DNA-damaging agents
Protocol: BJAB or Colo205 cells were treated with vinblastine, or adriamycin for the indicated time and analyzed by immunoblot as in FIG. 1.
Human colorectal adenocarcinoma Colo205 cells human B cell lymphoma BJAB cells and human T cell carcinoma Jurkat wild type cells (A3 clone), FADD-deficient (E1) and caspase-8-deficient (I9.3) were cultured in RPMI 1640+10% fetal bovine serum (FBS)+2 mM glutamine+1000 U/ml Penicillin-Streptomycin (Life Technologies). Human cervical carcinoma HeLa-M cells human breast adenocarcinoma MCF7 and human colorectal adenocarcinomas HCT15, HCT8, SW948, Colo320, human fibrosarcoma HT180 (ATCC), HCT116 Bax(−/−), HCT116 Bax(+/−) were grown in 50:50 Dulbecco's modified Eagle's and FK12 medium+10% FBS+1000 U/ml Penicillin-Streptomycin. cDNA clones encoding temperature-sensitive dynamins were the G273D mutant and dominant negative K44A mutant dynamin-1 (Dyn^G273D and Dyn^K44A, respectively). Dyn^G273D was expressed from pHUSH-ProEx, a single retroviral plasmid tetracycline-inducible expression system constructed at Genentech. […]

[2] = tested on: AP2α, AP1/2β, clathrin heavy chain (CHC), dynamin; experiment: Immunoblot for cleavage of clathrin-dependent endocytosis machinery and caspases in cell lysates
Protocol: (b) Colo205 cells were treated as in (a) and analyzed by immunoblot for processing of specific components of various types of clathrin-associated endocytic trafficking.
Open arrows indicate cleavage products and solid arrows indicate full-length proteins.
(c) BJAB cells were treated with crosslinked Apo2L/TRAIL and processing of dynamin was determined by immunoblot.
The cells were analyzed by immunoblot for processing of caspase-8, caspase-9, caspase-3, and AP2α.
Human colorectal adenocarcinoma Colo205 cells human B cell lymphoma BJAB cells and human T cell carcinoma Jurkat wild type cells (A3 clone), FADD-deficient (E1) and caspase-8-deficient (I9.3) were cultured in RPMI 1640+10% fetal bovine serum (FBS)+2 mM glutamine+1000 U/ml Penicillin-Streptomycin (Life Technologies). Human cervical carcinoma HeLa-M cells human breast adenocarcinoma MCF7 and human colorectal adenocarcinomas HCT15, HCT8, SW948, Colo320, human fibrosarcoma HT180 (ATCC), HCT116 Bax(−/−), HCT116 Bax(+/−) were grown in 50:50 Dulbecco's modified Eagle's and FK12 medium+10% FBS+1000 U/ml Penicillin-Streptomycin. cDNA clones encoding temperature-sensitive dynamins were the G273D mutant and dominant negative K44A mutant dynamin-1 (Dyn^G273D and Dyn^K44A, respectively). Dyn^G273D was expressed from pHUSH-ProEx, a single retroviral plasmid tetracycline-inducible expression system constructed at Genentech. The cDNA was first cloned into a shuttle plasmid containing a CMV enhancer-promoter sequence with two copies of the tetracycline operator TetO2, then transferred via in vitro phage lamda-based recombination, or Gateway® technology (Invitrogen, Carlsbad), to a Moloney murine leukemia virus backbone vector in which the wild type Tet repressor is driven by a separate β-actin promoter and followed by an internal ribosomal entry sequence and puromycin selection cassette. Dyn^K44A was expressed from the 2-vector tetracycline-inducible retroviral expression system, pRevTet-On/pRev-Tre (Clontech), using serial infections. Retroviral vectors were transfected into Phoenix amphotropic Moloney Murine Leukemia Virus packaging cells using Lipofectamine 2000 […]. Retroviral particles were harvested and used in HeLa-M and BJAB cell infections as described previously (Simpson et al. J Cell Biol 137, 835-45, 1997). Dyn^G273 infected cells were puromycin selected (2-3 μg/ml) for 1-2 weeks and cloned either by manually picking individual HeLa-M colonies or by FACS sorting of resistant BJAB cells (gated for exclusion of propidium iodide) and single cell seeding in 96-well cell culture plates using an EPICS ELITE-ESP equipped with an Autoclone device (Coulter, Hialeah, Fla.). Cell clones were screened for uniformity of doxycycline inducible dynamin-1 expression by immunofluorescence microscopy. Dyn^K44A-infected cells were hygromycin B (400 μg/ml) and G418 (1 mg/ml) selected for 1-2 weeks. Induction with doxycycline (1 μg/ml) was performed at 32° C. for 72 hr as described previously (Damke et al. J Cell Biol 131, 69-80 1995). Vincristine sulfate (#T-117), Adriamycin.HCL (GR-319) were purchased from Biomol, tetracycline-free FBS from Hyclone, Puromycin from Clontech and Doxycyclin from Sigma. zVAD-fmk (asN-benzyloxycarbonyl-Val-Ala-Asp-fluoromethylketone) was obtained from MD Biosciences (#FK-009). […]

[3] = tested on: BJAB and Colo205 cells; experiment: Transferrin (Tf) endocytosis rate by flow cytometry; conditions: BJAB cells, zVAD-fmk 30 min then 4 hr crosslinked Apo2L/TRAIL
Protocol: The cells were then equilibrated on ice for 30 min with Alexa-647-conjugated Tf (^647TF) and uptake at 37° C. was measured by flow cytometry. Each endocytosis rate was derived from the slope of the initial linear phase of a 4 min uptake kinetics plot (a, inset). […] Rates were normalized to the DMSO treated sample (±SEM).
Sedimented cells were resuspended in cold 2% paraformaldehyde/PBS and mean fluorescence intensity of 10,000 cells quantified with a Coulter Epics Elite-ESP flow cytometer (Hialeah, Fla.). Endocytic rates were determined from linear slopes of steady-state internal/surface plots (see, e.g., Wiley, H. S. et. al, J Biol Chem 257, 4222-9 (1982)). For temperature-shift experiments, ice binding incubations were avoided. Instead, cells were preconditioned for 20 min and maintained at 30° C. or 38° C. in binding medium, incubated an additional 0 (control) or 20 min with ^647Tf, chilled on ice for 30 min, and processed for flow cytometry to determine internal/surface ^647Tf ratios.

[4] = tested on: DISC; experiment: DISC immunoprecipitation; conditions: BJAB cells chilled on ice
Protocol: (a) BJAB cells were equilibrated with ^647Tf on ice, incubated for the indicated uptake interval at 37° C. or on ice, then fluorescence quantified by flow cytometry. […] DISC-associated FADD and caspase-8 were visualized by immunoblot. (c, d) Dyn^G273D-transduced BJAB cells were treated with buffer (No Dox) or doxycyline (Dox) and shifted to 38° C. for 20 min to inactivate dynamin. The cells were treated with crosslinked Apo2L/TRAIL for the indicated amounts of time and the DISC was immunoprecipitated. DISC-associated FADD and caspase-8 were visualized by immunoblot (c) or DISC-associated caspase-8 activity was measured as described previously (Sharp et al. J Biol Chem 280, 19401-409, 2005).
BJAB cells (1×10^7 per time point) were treated with Flag-Apo2L/TRAIL cross-linked by anti-FLAG M2 Abs, collected, lysed, immunoprecipitated and the DISC was analyzed as described (see, e.g., Kischkel, F. C. et al., Immunity 12, 611-20 (2000)).

Molecule: COc1cccc2c1C(=O)c1c(O)c3c(c(O)c1C2=O)C[C@@](O)(C(=O)CO)C[C@@H]3O[C@H]1C[C@H](N)[C@H](O)[C@H](C)O1 [adriamycin]
- Cleavage of components of the clathrin machinery [1]: induced cleavage of components of the clathrin machinery, albeit with much slower kinetics than DR ligands

Molecule: CC[C@]1(O)C[C@@H]2CN(CCc3c([nH]c4ccccc34)[C@@](C(=O)OC)(c3cc4c(cc3OC)N(C)[C@H]3[C@@](O)(C(=O)OC)[C@H](OC(C)=O)[C@]5(CC)C=CCN6CC[C@]43[C@@H]65)C2)C1 [vinblastine]
- Cleavage of components of the clathrin machinery [1]: induced cleavage of components of the clathrin machinery, albeit with much slower kinetics than DR ligands

Molecule: CC(C)[C@H](NC(=O)OCc1ccccc1)C(=O)N[C@@H](C)C(=O)N[C@@H](CC(=O)O)C(=O)CF [zVAD-fmk, N-benzyloxycarbonyl-Val-Ala-Asp-fluoromethylketone, reference compound] (Cbz-Val-Ala-Asp-CH2F)
- Effect of pretreatment on ligand-induced cleavage of AP2α and CHC ([2]; BJAB cells, zVAD-fmk 20 μM 30 min then crosslinked Apo2L/TRAIL 1 μg/mL): prevented cleavage of AP2α and CHC
- Effect of pretreatment on Apo2L/TRAIL inhibition of Tf endocytosis [3]: substantially reversed this inhibition

B1: FasL: Flag-tagged FasL, crosslinked; SEQ ID NO: 9 (protein, listed as Homo sapiens)
chain: MQQPFNYPYPQIYWVDSSASSPWAPPGTVLPCPTSVPRRPGQRRPPPPPPPPPLPPPPPPPPLPPLPLPPLKKRGNHSTGLCLLVMFFMVLVALVGLGLGMFQLFHLQKELAELRESTSQMHTASSLEKQIGHPSPPPEKKELRKVAHLTGKSNSRSMPLEWEDTYGIVLLSGVKYKKGGLVINETGLYFVYSKVYFRGQSCNNLPLSHKVYMRNSKYPQDLVMMEGKMMSYCTTGQMWARSSYLGAVFNLTSADHLYVNVSELSLVNFEESQTFFGLYKL
modifications: Flag tag, crosslinked
- Cleavage of AP2α and CHC ([2]; BJAB cells, crosslinked ligand): stimulated cleavage of AP2α and CHC in BJAB cells comparably to Apo2L/TRAIL
- Processing of AP2α and CHC ([2]; caspase-8-deficient or FADD-deficient mutant Jurkat cell lines): neither ligand stimulated processing of these targets
- Cleavage of AP2α and CHC ([2]; wt Jurkat T cells): induced cleavage of AP2α and CHC
- DISC assembly with Tf endocytosis blocked [4]: still recruited FADD and caspase-8 to their respective receptors and processed caspase-8
